Measured values: patent US10251860B2, “Compounds for bone healing” (University of Pittsburgh—Of the Commonwealth System of …, priority 2015, dated 2019)
“Also recorded” adds a separate entry of the source.

How the values were obtained:
32D cl 3 cells [1] = assay: Irradiated 32D cl 3 cells, cell count and viability; type: cell-based, murine; conditions: 10 μM, 0-7 Gy, day 3 or 5 after irradiation
Procedure: FIGS. 10A-10D provide data from a screening experiment where 32D cl 3 cells were irradiated to doses of 0, 1, 3, 5, or 7 Gy and placed in T25 flasks. Either JP4-039 or MM350 were added at 10 μM and incubated in a CO2 incubator at 37° C. At Day 3 or 5 after irradiation, the cells were counted and the viability determined.

[2] = system: C57BL/6NTac mice, 9.5 Gy total body irradiation; assay: Total body irradiation survival (hematopoietic syndrome); type: in vivo, mouse
Procedure: FIG. 13 is a graph of percent survival versus day, illustrating the in vivo mitigation of total body irradiation by MMS350. MMS350 was dissolved in water at a concentration of 2 mg/ml. C57BL/6NTac mice (n=15/group) were irradiated to 9.5 Gy total body irradiation and injected intraperitoneally with 10 mg/kg of MMS350 at 4 or 24 hours after irradiation. The mice were followed for the development of the hematopoietic syndrome at which time the mice were sacrificed.
Mice were irradiated using JL Shepherd Mark 1 Model 68 irradiator to 9.25 total body irradiation dose or a Varian Linear Accelerator (Varian Medical Systems, Inc, Palo Alto, Calif.) to 20 Gy for pulmonary irradiation according to published methods (2, 10, 13).
Mice were injected intra-peritoneally with MMS350 or JP4-039 (GS-nitroxide) in 50% cremphor/50% ethanol according to published methods. For long-term administration of MMS350, the drug was administered in water bottles with bottles changed every 7 days. The dose of drug per bottle was 100 μM MMS350 starting on day 88. The estimated total amount consumed by each animal daily was 10.9 μg based on a mouse drinking 5 ml of water per day. Chimeric mice irradiated to the thoracic cavity were placed 30 days later on MMS350 in water containing 100 mM MMS350. On day 88 after thoracic irradiation of non-chimeric mice, mice were placed on […] MMS350 in drinking water.

[3] = system: luc+ bone marrow stromal cells migrating to lungs; assay: Live imaging of luc+ marrow cell migration to irradiated lungs; type: in vivo, mouse; conditions: MMS350 in drinking water
Procedure: C57BL/6NTac mice marrow chimeric luc+ mice were prepared by 9.25 Gy TBI, followed by an injection of 1×10^7 luc+ marrow cells 24 hours later. Subgroups of these chimeric mice were irradiated to 20 Gy to the pulmonary cavity. On day 75 following thoracic irradiation, 50% of the mice were placed on drinking water containing 100 mM MMS350. Mice in the non-chimeric group were injected intraperitoneally on day 100 after irradiation with 1×10^6 luc+ bone marrow stromal cells. Beginning 12 days after cell line injection (112 days after irradiation), the cell line injected mice were imaged at serial timepoints following injection of D-luciferin (Gold Biotechnology, St. Louis, Mo.) using a Xenogen IVIS 200 Imaging system and the bioluminescent signal for each mouse quantitated. As controls for thoracic irradiation, other C57BL/6NTac mice were irradiated to 20 Gy to the right hind limb and injected with luc+ bone marrow stromal cells in the same cell numbers and at the same time points used for the thoracic irradiation experiment. Animals were imaged for luc+ cell migration into irradiated hind limbs using methods identical to that used for pulmonary irradiation groups. The bioluminescence of the mice treated with MMS350 in the drinking water was compared to mice on regular drinking water using a Student T test. […]

[4] = system: 320 cl 3 murine hematopoietic cells; assay: Apoptotic markers after 5 Gy irradiation in vitro; type: cell-based; conditions: 24 hours after irradiation
Description: Caspase-3 cleavage and Parpl cleavage illustrated the effects on apoptosis. […] Materials and Methods: Overall Design of Studies (Table 7).

[5] = system: breast cancer cell line (MDA-MB-231); type: cell-based
Description: (§1) The cellular toxicity of sulfoxide 3 was further determined for a breast cancer cell line (MDA-MB-231) and a liver cell line (HepG2).

liver cell line (HepG2) = type: cell-based
Description: as §1

32D cl 3 cells [6] = assay: 32D cl 3 colony formation in semisolid medium after irradiation; type: cell-based, murine; conditions: delivered before or after irradiation

`CC1(C[S+]([O-])CC2(C)COC2)COC1` [Compound 3, 3,3′-Sulfinylbis(methylene)bis(3-methyloxetane)] was tested, and the “number of cells and viability” value (32D cl 3 cells [1]) was “comparable to JP4-039”, the survival ([2]; 9.5 Gy TBI, 10 mg/kg intraperitoneally 4 hours after irradiation, p=0.0092) was “significantly increased survival” and the survival ([2]; 9.5 Gy TBI, 10 mg/kg intraperitoneally 24 hours after irradiation, p=0.0097) was “significantly increased survival”. For the same compound, the “protection and mitigation against total body irradiation” value ([2]; intraperitoneal injection before or after 9.5 Gy TBI, C57BL/6 mice, n=15/group) was “both a protector when delivered prior to irradiation and mitigator when delivered after irradiation comparable to JP4-039”, the survival ([2]; single dose 24 hours after 9.5 Gy TBI, C57BL/6/HNsd mice) was “significant improvement in survival” and the “pulmonary migration of luc+ bone marrow stromal cells” value ([3]; 20 Gy thoracic irradiation, luc+ stromal cell line injected intraperitoneally) was “significant decrease in migration into the lungs of luc+ cells; also recorded: significant decrease in pulmonary migration of luc+ bone marrow stromal cells”. The “migration of luc+ bone marrow cells into the lungs” value ([3]; luc+ marrow chimeric mice, 18 or 20 Gy thoracic irradiation, listed as MMS350) was “significantly reduces migration of bone marrow cells into the lungs; also recorded: reduction of luc+ areas in the thoracic cavity”, the “1C3-1/11 conversion (autophagy)” value ([4]; 5 Gy) was “no difference” and the “H2AX phosphorylation (DNA strand break repair)” value ([4]; 5 Gy) was “more prominent with MMS-350 than JP4-038”. The “mitochondrial markers of apoptosis” value ([4]; one-hour before or 30-minutes after 5 Gy) was “reduced mitochondrial markers of apoptosis”, the GI50 [5] was roughly 200 mM and the GI50 (liver cell line (HepG2)) was roughly 200 mM. The “radiation protection and mitigation of colony forming cells” value (32D cl 3 cells [6]) was “significant effectiveness”.
